Measurements: US20230257703A1, “NANOSCALE POLYMERIC MICELLAR SCAFFOLDS FOR RAPID AND EFFICIENT ANTIBODY PRODUCTION” (Iowa State University Research Foundation, Inc., priority 2020, published 2023)

Assays:
[1] = test system: splenic B cells of Ighel Tg mice (BCRs specific to HEL); test: CFSE B cell proliferation and viability, splenic cells of Ighel Tg mice; format: cell-based; conditions: 10 µg/mL, 4 days
[2] = test system: murine splenic B cells (CD19+); test: Nur77 expression in B cells by flow cytometry (BCR engagement); format: cell-based, mice; conditions: micelle-Ag 10 µg/mL each component, LPS 0.5 µg/mL, anti-IgM F(ab′)2 10 µg/mL
Description: B cell proliferation was detected using in vitro labeling of cells with CFSE and analysis by flow cytometry. Distinct generations of proliferating cells can be monitored by dilutions of CFSE stain on the cells as viewed on the flow cytometry plots. For the flow cytometry procedure, the cells were transferred into polystyrene FACS tubes and labelled with Zombie Aqua dye for tracking viable cells post-stimulation using manufacturer’s instructions. […] For intracellular staining of Nur77 antibody, following surface staining, cells were washed with PBS and then fixed with 4% p-formaldehyde. After washing the cells again with PBS, 0.1% Triton X-100 was used for permeabilization, and following that, Nur77 Ab at a 1:50 dilution was used to stain the cells. After the staining, cells were washed in FACS buffer to remove excess dye and samples were fixed prior to analysis. The flow cytometry data was collected on FACSCanto II (BD Bioscience, NJ) and analyzed using FlowJo (FlowJo LLC, Ashland, CA).

Substance	B cell proliferation (CFSE^lo peaks) [1]	Nur77 induction [2]
hen egg white lysozyme [HEL]	small peak with some proliferation	
lipopolysaccharide [LPS]		did not trigger Nur77 induction
